Reference: patent publication US10357525B2, “Use of a polysaccharide mixture for treating hyperglycemia” (TRINEO BIOTECHNOLOGY CO. LTD, priority 2017, dated 2019)

Test system: NIT-1 cells
Assay: STZ-induced apoptosis in NIT-1 cells, cell viability by MTT assay
Type: cell-based, mice
Conditions: STZ 8 μM alone, FIG. 1
Experimental: Cells. Cell line used in the present study was pancreatic beta cell line NIT-1 ([…], BCRC). NIT-1 cells were cultured and maintained in Ham's F12K medium with 2 mM L-glutamine adjusted to contain 1.5 g/L sodium bicarbonate, 90%; heat-inactivated dialyzed fetal bovine serum(FBS), 10%; 100 units/mL penicillin G, 100 units/mL streptomycin (pH 7.4) and 1% non-essential amino acids(NEAA). were maintained in humidified environment comprising 5%CO2/95% air at 37° C.
NIT-1 cells were seeded into 96-well plates at a density of 1.0×10^5 cells per well and cultured in their normal growth media overnight. Next day, cells were incubated in the presence of streptozotocin (STZ) (8 μM) and the polysaccharide mixture (abbreviated as “FPA”, 100 μg/mL) of the present invention for 24 hrs, then cell viability was determined by MTT assay.
NIT-1 cells are pancreatic beta cell lines established from transgenic mice spontaneously developing beta-cell adenoma, thus, NIT-1 cells are suitable for hyperglycemia study for they are not responsive to glucose in the physiological range. […] Accordingly, the protective effect of the present polysaccharide mixture of example 1 on STZ-treated NIT-1 cells was evaluated by MTT assay. Result is illustrated in FIG. 1.

For CN(N=O)C(=O)N[C@H]1C(O)O[C@H](CO)[C@@H](O)[C@@H]1O (mixture of isomers) [STZ, streptozotocin], the “portion of NIT-1 cells died” value was “about 60%”.
